From PMC7503712, “Enterovirus Inhibition by Hinged Aromatic Compounds with Polynuclei” (Molecules, 2020)

Tests used:
EV71 strain BrCr = assay: Antiviral activity on the replication of EV71 strain BrCr in RD cells; format: cell-based, Enterovirus 71; details: for EC50: Enterovirus A, virus replication inhibited by 50%
Method: (§1) The selectivity index (SI = CC50/EC50), a measure for the therapeutic window of the compound in the assay system, was then calculated. The antiviral effect of hinged aromatic compounds that adversely affected the host cell metabolism was likely as a result of a pleiotropic or non-specific effect on the host cell. […].
(§2) The biological activity of the 18 hinged aromatic compounds against EV71 was evaluated in a cell-based assay with live enteroviruses. The EV71 strains were originated from Chang Gung University of Taiwan. The rhabdomyosarcoma (RD) cells, grown for 3–4 days in tissue culture flasks, were harvested and seeded in MEM Rega 3 medium (Gibco, Merelbeke, Belgium) supplemented with fetal bovine serum (FBS, 2.0%, Integro, Merelbeke, Belgium), 200 mM L-glutamine (Gibco, Merelbeke, Belgium), and aqueous 7.5% NaHCO3 (Gibco, Merelbeke, Belgium). The microtitre plates were incubated overnight to produce a non-confluent cell monolayer. Then assay plates were transferred to a liquid handling platform, on which a sample dilution series was prepared at a sample concentration of 0.100 mg/mL or lower in DMSO. After preparation of the hinged compound dilution series, virus was added to the wells with a dilution optimized for each EV71 strain. The final, maximal DMSO concentration that reached in the assay wells with the highest sample input (1.0%) was tolerated well by the cells. The assay plates were returned to the incubator at 37 °C (5.0% CO2) for four days. According to the manufacturers’ instructions (Promega, Leiden, The Netherlands), residual cell viability was then quantified by use of an MTS readout method.

[1] = Lipophilicity by shake-flask method with UV spectrometry; format: physicochemical; details: n-octane and water, 25 ± 1 °C, average of three independent experiments
Method: The log P values associated with the molecular lipophilicity of all hinged aromatic compounds with polynuclei were obtained by use of the ''shake-flask method'' [46]. The partition coefficient was measured as the ratio of the equilibrium concentrations of a dissolved hinged compound in a two-phase system consisting of n-octane and water, which are immiscible solvents. The temperature was kept constant at 25 ± 1 °C. The analytical method employed was UV spectrometry.

[2] = Adverse effect on host cell metabolism (MTS method) in RD cells; format: cell-based; details: human, RD (rhabdomyosarcoma) cells, RD host cell metabolism reduced by 50%
Method: as §1, §2

| SMILES | EC50 (EV71 strain BrCr) | logD hydrocarbon water [1] | CC50 at 4 days [2] | SI (selectivity index = CC50/EC50) (EV71 strain BrCr) | melting point |
| --- | --- | --- | --- | --- | --- |
| O=C(c1ccc(-c2cccc(-c3cc[nH]n3)c2)o1)N1CCOCC1 [21a] | 11.6 ± 0.3 µM | 2.6 |  |  |  |
| O=C(Nc1ccc(F)cc1)c1ccc(-c2cccc(-c3cc[nH]n3)c2)o1 [12a, N-(4-Fluorophenyl)-5-[3-(1H-pyrazol-3-yl)phenyl]furan-2-carboxamide] | < 1.73 µM | 4.18 | 4.53 ± 0.1 µM |  |  |
| O=C(c1ccc(-c2cccc(-c3cc[nH]n3)c2)o1)N1CCCCCC1 [10c, Azepan-1-yl(5-[3-(1H-pyrazol-3-yl)phenyl]furan-2-yl)methanone] | 6.16 ± 0.15 µM | 4.22 | 81.1 ± 3 µM | 13.1 |  |
| Cc1cc(-c2cccc(-c3ccc(C(=O)N4CCOCC4)o3)c2)n[nH]1 [21b, Morpholino-(5-[3-(5-methyl-1H-pyrazol-3-yl)phenyl]furan-2-yl)methanone] | 13 ± 2.5 µM | 2.87 |  |  |  |
| COc1ccc(-c2cc(-c3cccc(-c4ccc(C(=O)N5CCOCC5)s4)c3)n[nH]2)cc1 [21h, [5-(3-[5-(4-Methoxyphenyl)-1H-pyrazol-3-yl]phenyl)thiophen-2-yl](morpholino)methanone] | 4.1 ± 0.12 µM | 4.64 | 41.9 ± 2.2 µM | 10.2 |  |
| CCOC(=O)c1ccc(OCCC2CCN(c3ccc(C)nn3)CC2)cc1 [Pirodavir, reference compound] | 0.3 ± 0.1 µM |  | > 54 µM |  |  |
| COc1ccc(-c2cc(-c3cccc(-c4ccc(C(=O)N5CCOCC5)o4)c3)n[nH]2)cc1 [21e, Morpholino[5-(3-[5-(4-methoxyphenyl)-1H-pyrazol-3-yl]phenyl)furan-2-yl]methanone] | < 1.4 µM | 3.96 | 2.09 ± 0.1 µM |  |  |
| O=C(c1ccc(-c2cccc(-c3cc[nH]n3)c2)o1)N1CCCCC1 [10b, Piperidin-1-yl(5-[3-(1H-pyrazol-3-yl)phenyl]furan-2-yl)methanone] | 2.14 ± 0.12 µM | 3.87 | 14.3 ± 1 µM | 6.70 |  |
| O=C(NC1CC1)c1ccc(-c2cccc(-c3cc[nH]n3)c2)o1 [compound 13, N-Cyclopropyl-5-[3-(1H-pyrazol-3-yl)phenyl]furan-2-carboxamide] | 15.1 ± 1 µM | 3.25 |  |  |  |
| Cn1c(C(=O)N2CCOCC2)ccc1-c1cccc(-c2cc[nH]n2)c1 [21j, Morpholino(5-[3-(1H-pyrazol-3-yl)phenyl]-1-methyl-1H-pyrrol-2-yl)methanone] | 223 ± 2 µM | 2.56 |  |  |  |
| O=C(c1ccc(-c2cccc(-c3cc(-c4ccccc4)[nH]n3)c2)s1)N1CCOCC1 [21g, Morpholino(5-[3-(5-phenyl-1H-pyrazol-3-yl)phenyl]thiophen-2-yl)methanone] | 241 ± 3 µM | 4.61 |  |  | 239.6 to 241.8 °C |
| O=C(c1ccc(-c2cccc(-c3cc(-c4ccc(C(F)(F)F)cc4)[nH]n3)c2)s1)N1CCOCC1 [21i, Morpholino(5-[3-(5-[4-(trifluoromethyl)phenyl]-1H-pyrazol-3-yl)phenyl]thiophen-2-yl)-methanone] | 2.29 ± 0.1 µM | 5.04 | 76.4 ± 3 µM | 33.4 |  |
| O=C(c1ccc(-c2cccc(-c3cc(-c4ccc(C(F)(F)F)cc4)[nH]n3)c2)o1)N1CCOCC1 [21f, Morpholino(5-[3-(5-[4-(trifluoromethyl)phenyl]-1H-pyrazol-3-yl)phenyl]furan-2-yl)-methanone] | < 1.28 µM | 4.33 | 3.28 ± 0.11 µM |  |  |
| O=C(c1ccc(-c2cccc(-c3cc(-c4ccccc4)[nH]n3)c2)o1)N1CCOCC1 [21c, Morpholino-(5-[3-(5-phenyl-1H-pyrazol-3-yl)phenyl]furan-2-yl)methanone] |  | 3.92 | 4.13 ± 0.12 µM |  |  |
| Cn1ccc(-c2cccc(-c3ccc(C(=O)N4CCOCC4)o3)c2)n1 [compound 23, Morpholino(5-[3-(1-methyl-1H-pyrazol-3-yl)phenyl]furan-2-yl)methanone] | 34.6 ± 1 µM | 2.75 |  |  |  |
| O=C(c1ccc(-c2cccc(-c3cc[nH]n3)c2)o1)N1CCCC1 [10a, (5-[3-(1H-Pyrazol-3-yl)phenyl]furan-2-yl)(pyrrolidin-1-yl)methanone] | 16.2 ± 1 µM | 3.42 | 119 ± 2 µM | 7.30 |  |
| COCCNC(=O)c1ccc(-c2cccc(-c3cc[nH]n3)c2)s1 [compound 14, N-(2-Methoxyethyl)-5-[3-(1H-pyrazol-3-yl)phenyl]thiophene-2-carboxamide] |  | 3.15 | 22.4 ± 2.5 µM |  |  |
| Cc1ccc(-c2cc(-c3cccc(-c4ccc(C(=O)N5CCOCC5)o4)c3)n[nH]2)cc1 [21d, Morpholino[5-(3-[5-(p-tolyl)-1H-pyrazol-3-yl]phenyl)furan-2-yl]methanone] |  | 4.3 | 3.25 ± 0.3 µM |  |  |
| COc1ccc(NC(=O)c2ccc(-c3cccc(-c4cc[nH]n4)c3)o2)cc1 [12b, N-(4-Methoxyphenyl)-5-[3-(1H-pyrazol-3-yl)phenyl]-furan-2-carboxamide] | 2.41 ± 0.3 µM | 4.15 | 21 ± 1.5 µM | 8.70 |  |
